Measurements reported in ChEMBL document CHEMBL4387726, “Design and synthesis of novel tellurodibenzoic acid compounds as kidney-type glutaminase (KGA) inhibitors” (Bioorg Med Chem Lett, 2019).

How the values were obtained:
[1] = Inhibition of human KGA assessed as reduction in glutamate formation using glutamine as substrate pretreated with 0.5 hr followed by substrate addition and measured after 4 hrs by KGA/GDH coupled assay
[2] = Inhibition of Escherichia coli GDH using glutamate as substrate pre treated with 1 hr followed by substrate addition and measured after 1 hr
HCT-116 = assay: Antiproliferative activity against human HCT116 cells assessed as reduction in cell viability after 5 days by EZMTT assay; assay type: functional, cell-based; settings: HCT-116, 120 h
[3] = Inhibition of Escherichia coli TrxR pre treated with 0.5 hr followed by DTNB addition and measured after 1 hr
[4] = Stability of the compound in oxidative (H2O2) solution at 37 degC for 24 hrs by HPLC analysis; assay type: physicochemical
[5] = Stability of the compound in nucleophilic (DTT) solution at 37 degC for 24 hrs by HPLC analysis; assay type: physicochemical
[6] = Stability of the compound in nucleophilic (lysine) solution at 37 degC for 24 hrs by HPLC analysis; assay type: physicochemical
[7] = Stability of the compound in nucleophilic (beta-ME) solution at 37 degC for 24 hrs by HPLC analysis; assay type: physicochemical
[8] = Stability of the compound in acidic (HCOOH) solution at 37 degC for 24 hrs by HPLC analysis; assay type: physicochemical
[9] = Stability of the compound in basic (NH3.H2O) solution at 37 degC for 24 hrs by HPLC analysis; assay type: physicochemical

| Compound | IC50 [1] [µM] | IC50 [2] [µM] | EC50 (HCT-116) [µM] | IC50 [3] [µM] | Stability [4] | Stability [5] | Stability [6] | Stability [7] | Stability [8] | Stability [9] |
| --- | --- | --- | --- | --- | --- | --- | --- | --- | --- | --- |
| COc1ccc([Te]c2ccc(OC)cc2C(=O)O)c(C(=O)O)c1 | 7.8 | > 66.7 | 10.2 | > 66.7 |  |  |  |  |  |  |
| O=C(Nc1ccccc1)c1cc(Br)ccc1[Te]c1ccc(Br)cc1C(=O)Nc1ccccc1 | > 66.7 | > 66.7 | > 50 | > 66.7 |  |  |  |  |  |  |
| COC(=O)c1cc(Br)ccc1[Te]c1ccc(Br)cc1C(=O)OC | > 66.7 | > 66.7 | > 50 | > 66.7 |  |  |  |  |  |  |
| Cc1ccc([Te]c2ccc(C)cc2C(=O)O)c(C(=O)O)c1 | 10.2 | > 66.7 | 16.9 | > 66.7 |  |  |  |  |  |  |
| O=C(OCc1ccccc1)c1cc(Br)ccc1[Te]c1ccc(Br)cc1C(=O)OCc1ccccc1 | > 66.7 | > 66.7 | > 50 | > 66.7 |  |  |  |  |  |  |
| COc1ccc(C(=O)O)c([Te]c2cc(OC)ccc2C(=O)O)c1 | 11.3 | > 66.7 | 7.5 | > 66.7 |  |  |  |  |  |  |
| O=C(O)c1cc(O)ccc1[Te]c1ccc(O)cc1C(=O)O | 6.3 | > 66.7 | 18 | > 66.7 |  |  |  |  |  |  |
| O=C(O)c1cc(Br)ccc1[Te]c1ccc(Br)cc1C(=O)O | 2.4 | > 66.7 | 5 | > 66.7 | Stable | Unstable | Unstable | Unstable | Stable | Stable |
| CNC(=O)c1cc(Br)ccc1[Te]c1ccc(Br)cc1C(=O)NC | > 66.7 | > 66.7 | > 50 | > 66.7 |  |  |  |  |  |  |
| CCNC(=O)c1cc(Br)ccc1[Te]c1ccc(Br)cc1C(=O)NCC | 62.8 | > 66.7 | > 50 | > 66.7 |  |  |  |  |  |  |
| CCOC(=O)c1cc(Br)ccc1[Te]c1ccc(Br)cc1C(=O)OCC | > 66.7 | > 66.7 | > 50 | > 66.7 |  |  |  |  |  |  |
| O=C(O)c1ccccc1[Te]c1ccccc1C(=O)O | 7 | > 66.7 | 17.8 | > 66.7 |  |  |  |  |  |  |
| O=C(O)c1cc(I)ccc1[Te]c1ccc(I)cc1C(=O)O | 7.4 | > 66.7 | 25.6 | > 66.7 |  |  |  |  |  |  |
| COc1cccc(C(=O)O)c1[Te]c1c(OC)cccc1C(=O)O | > 66.7 | > 66.7 | > 50 | > 66.7 |  |  |  |  |  |  |
